Measurements published in PubChem BioAssay AID2060621 (Molecular Pharmacology Branch, DTP, NCI, 2025).

System: 324938-238-R-J1-PDC complex spheroids viability
Assay: Anticancer human tumor 324938-238-R-J1-PDC patient-derived bladder carcinoma cell line growth inhibition [CLK]
Conditions: for IC50: curve of first compound; for viability, T/C: stronger effect = lower value
In short: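 Patient-derived tumor cells grown as complex spheroids with HUVEC endothelial cells and mesenchymal stem cells, treated with drug combinations. Concentrations descend in half-log steps from near clinical Cmax, or from 10 microM if Cmax unknown.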

[1] = second compound 0.0316 µM, first compound 0.0316 µM
[2] = second compound 0.0316 µM, first compound 0.1 µM
[3] = second compound 0.0316 µM, first compound 0.316 µM
[4] = second compound 0.0316 µM, first compound 1 µM
[5] = second compound 0.0316 µM, first compound 3.16 µM
[6] = second compound 0.0316 µM, first compound 10 µM
[7] = second compound 0.1 µM, first compound 0.0316 µM
[8] = second compound 0.1 µM, first compound 0.1 µM
[9] = second compound 0.1 µM, first compound 0.316 µM
[10] = second compound 0.1 µM, first compound 1 µM
[11] = second compound 0.1 µM, first compound 3.16 µM
[12] = second compound 0.1 µM, first compound 10 µM
[13] = second compound 0.316 µM, first compound 0.0316 µM
[14] = second compound 0.316 µM, first compound 0.1 µM
[15] = second compound 0.316 µM, first compound 0.316 µM
[16] = second compound 0.316 µM, first compound 1 µM
[17] = second compound 0.316 µM, first compound 3.16 µM
[18] = second compound 0.316 µM, first compound 10 µM
[19] = second compound 1 µM, first compound 0.0316 µM
[20] = second compound 1 µM, first compound 0.1 µM
[21] = second compound 1 µM, first compound 0.316 µM
[22] = second compound 1 µM, first compound 1 µM
[23] = second compound 1 µM, first compound 3.16 µM
[24] = second compound 1 µM, first compound 10 µM
[25] = second compound 3.16 µM, first compound 0.0316 µM
[26] = second compound 3.16 µM, first compound 0.1 µM
[27] = second compound 3.16 µM, first compound 0.316 µM
[28] = second compound 3.16 µM, first compound 1 µM
[29] = second compound 3.16 µM, first compound 3.16 µM
[30] = second compound 3.16 µM, first compound 10 µM
[31] = second compound 10 µM, first compound 0.0316 µM
[32] = second compound 10 µM, first compound 0.1 µM
[33] = second compound 10 µM, first compound 0.316 µM
[34] = second compound 10 µM, first compound 1 µM
[35] = second compound 10 µM, first compound 3.16 µM
[36] = second compound 10 µM, first compound 10 µM
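Note: viability read after seven days of drug exposure.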
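Throughout, for viability, T/C: 100% = DMSO vehicle control wells.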

## CC1(C)CCC(CN2CCN(c3ccc(C(=O)NS(=O)(=O)c4ccc(NCC5CCOCC5)c([N+](=O)[O-])c4)c(Oc4cnc5[nH]ccc5c4)c3)CC2)=C(c2ccc(Cl)cc2)C1 + CN1CCN(c2cc(C(=O)Nc3cc4cc(-c5cnn(C)c5)ccc4cn3)ccn2)CC1
Second compound 0.0316 µM
  IC50: 6720 nM
Second compound 0.1 µM
  IC50: 1480 nM
Second compound 0.316 µM
  IC50: < 31.6 nM
Second compound 1 µM
  IC50: < 31.6 nM
Second compound 3.16 µM
  IC50: < 31.6 nM
Second compound 10 µM
  IC50: < 31.6 nM
[1]
  viability, T/C: 79.6%
[2]
  viability, T/C: 90.2%
[3]
  viability, T/C: 80.3%
[4]
  viability, T/C: 81%
[5]
  viability, T/C: 82.8%
[6]
  viability, T/C: 32.7%
[7]
  viability, T/C: 51.9%
[8]
  viability, T/C: 55.4%
[9]
  viability, T/C: 47.4%
[10]
  viability, T/C: 54.9%
[11]
  viability, T/C: 46.2%
[12]
  viability, T/C: 26.4%
[13]
  viability, T/C: 25.2%
[14]
  viability, T/C: 22.9%
[15]
  viability, T/C: 19%
[16]
  viability, T/C: 24.8%
[17]
  viability, T/C: 21.5%
[18]
  viability, T/C: 11.6%
[19]
  viability, T/C: 1.53%
[20]
  viability, T/C: 1.38%
[21]
  viability, T/C: 1.4%
[22]
  viability, T/C: 1.48%
[23]
  viability, T/C: 1.08%
[24]
  viability, T/C: 0.34%
[25]
  viability, T/C: 0.12%
[26]
  viability, T/C: 0.21%
[27]
  viability, T/C: 0.14%
[28]
  viability, T/C: 0.14%
[29]
  viability, T/C: 0.11%
[30]
  viability, T/C: 0.16%
[31]
  viability, T/C: 0.12%
[32]
  viability, T/C: 0.16%
[33]
  viability, T/C: 0.16%
[34]
  viability, T/C: 0.14%
[35]
  viability, T/C: 0.19%
[36]
  viability, T/C: 0.19%

## CC1COCCN1c1cc(C2(S(C)(=N)=O)CC2)nc(-c2ccnc3[nH]ccc23)n1 (centres undefined) + CN1CCN(c2cc(C(=O)Nc3cc4cc(-c5cnn(C)c5)ccc4cn3)ccn2)CC1
Second compound 0.0316 µM
  IC50: 1100 nM
Second compound 0.1 µM
  IC50: 400 nM
Second compound 0.316 µM
  IC50: < 31.6 nM
Second compound 1 µM
  IC50: < 31.6 nM
Second compound 3.16 µM
  IC50: < 31.6 nM
Second compound 10 µM
  IC50: < 31.6 nM
[1]
  viability, T/C: 80.1%
[2]
  viability, T/C: 79.7%
[3]
  viability, T/C: 70%
[4]
  viability, T/C: 51.8%
[5]
  viability, T/C: 28.8%
[6]
  viability, T/C: 14.8%
[7]
  viability, T/C: 55.3%
[8]
  viability, T/C: 52.7%
[9]
  viability, T/C: 55.3%
[10]
  viability, T/C: 39.8%
[11]
  viability, T/C: 22.9%
[12]
  viability, T/C: 11.5%
[13]
  viability, T/C: 24.8%
[14]
  viability, T/C: 24.1%
[15]
  viability, T/C: 19%
[16]
  viability, T/C: 21.9%
[17]
  viability, T/C: 16.1%
[18]
  viability, T/C: 11.4%
[19]
  viability, T/C: 1.54%
[20]
  viability, T/C: 1.37%
[21]
  viability, T/C: 1.72%
[22]
  viability, T/C: 1.08%
[23]
  viability, T/C: 1.06%
[24]
  viability, T/C: 0.6%
[25]
  viability, T/C: 0.25%
[26]
  viability, T/C: 0.15%
[27]
  viability, T/C: 0.19%
[28]
  viability, T/C: 0.16%
[29]
  viability, T/C: 0.16%
[30]
  viability, T/C: 1.37%
[31]
  viability, T/C: 0.16%
[32]
  viability, T/C: 0.17%
[33]
  viability, T/C: 0.21%
[34]
  viability, T/C: 0.16%
[35]
  viability, T/C: 0.22%
[36]
  viability, T/C: 0.22%
